Experiment [1] concerns isolated spleen cells stimulated with OVA peptide. Briefly: mouse immunity experiment, cellular immunity level (ELISPOT). The following applies: 200 μL intradermal, 62.5 μg/ml egg albumin, 3 injections at one week interval, one week after final injection, N = 2. Format: in vivo, mouse (C57BL/6 lineage). The procedure:
(§1) 200 μL of small particles of Example 10 (egg albumin concentration 62.5 μg/ml, pH 6.5) or egg albumin solution (egg albumin concentration 62.5 μg/ml, pH 6.5) was intradermally injected to the back of mouse (C57BL/6 lineage). Injection at one week interval was repeated twice, totaling 3 injections. One week after final injection, the humoral immunity level and cellular immunity level of the mouse were evaluated. The humoral immunity level was evaluated by measuring the amount of antibody against OVA in the serum based on the absorbance by ELISA method. The cellular immunity level was evaluated by stimulating the isolated spleen cells with OVA peptide, counting the spot number of the ELISPOT method, and measuring the secreted amount of IFN-y.

For experiment [2], the system named is antibody against OVA in the serum. The experiment is described as follows: mouse immunity experiment, humoral immunity level (ELISA). Format: in vivo, mouse (C57BL/6 lineage). The following applies: 200 μL intradermal, 62.5 μg/ml egg albumin, 3 injections at one week interval, one week after final injection, N = 2. How it is done:
as §1
(In general: ELISA stands for enzyme-linked immunosorbent assay.)

Where “and” joins values, the source holds several entries; their conditions need not be identical. Identical values can stand only once.

With “OVA solution: egg albumin solution (egg albumin concentration 62.5 μg/ml, pH 6.5), control in mouse immunity experiment”, in experiment [1], the “cellular immunity level of spleen cell (SPOT number of ELISPOT analysis), average” value was 62; the “cellular immunity level of spleen cell (SPOT number of ELISPOT analysis), individual mice” value is 77 and 46. For the same substance, in experiment [2], the “humoral immunity level of serum (absorbance at 450 nm by ELISA analysis), average” value is reported as 0.32; the “humoral immunity level of serum (absorbance at 450 nm by ELISA analysis), individual mice” value is 0.23 and 0.40.

The record behind these values is patent publication US20120244196A1, “PHARMACEUTICAL COMPOSITION CONTAINING MEDICAMENT-CONTAINING FINE PARTICLES AND METHOD FOR PRODUCING SAME” (NITTO DENKO CORPORATION, priority 2009, published 2012).
